# Laboratory results taken from patent US9359352B2, “Substituted benzimidazoles as PI3 kinase inhibitors” (Intellikine LLC, priority 2010, dated 2016).
# Tests used:
# Format in all cases: biochemical
# PI3K β = biological target: T1, PI3K β (Homo sapiens, UniProt P42338); test: PI 3-Kinase HTRF inhibition assay, PI3K β; details: in vitro
# T1 construct: purchased Upstate
# Procedure: (§1) Commercial kits or systems for assaying PI3-K activities are available. The commercially available kits or systems can be used to screen for inhibitors and/or agonists of PI3-Ks including but not limited to PI 3-Kinase α, β, δ, and γ. An exemplary system is PI 3-Kinase (human) HTRF™ Assay from Upstate. […] Briefly, the assay is a time resolved FRET assay that indirectly measures PIP3 product formed by the activity of a PI3-K. The kinase reaction is performed in a microtitre plate (e.g., a 384 well microtitre plate). The total reaction volume is approximately 20 ul per well. In the first step, each well receives 2 ul of test compound in 20% dimethylsulphoxide resulting in a 2% DMSO final concentration. Next, approximately 14.5 ul of a kinase/PIP2 mixture (diluted in 1× reaction buffer) is added per well for a final concentration of 0.25-0.3 ug/ml kinase and 10 μM PIP2. The plate is scaled and incubated for 15 minutes at room temperature. To start the reaction, 3.5 ul of ATP (diluted in 1× reaction buffer) is added per well for a final concentration of 10 μM ATP. The plate is sealed and incubated for 1 hour at room temperature. The reaction is stopped by adding 5 ul of Stop Solution per well and then 5 ul of Detection Mix is added per well. The plate is sealed, incubated for 1 hour at room temperature, and then read on an appropriate plate reader. Data is analyzed and IC50s are generated using GraphPad Prism 5. For PI3K α, β, δ, and γ, the nM concentration of inhibitor to reach IC50 is provided. […] Similar assays, and others known in the art, can be used to measure the percent inhibition of other kinases, including but not limited to PI3K class II kinases, phosphoinositide 4 kinases (PI4K), and phosphoinositide 5 kinases (PI5K).
# PI3K δ = biological target: T2, PI3K δ (Homo sapiens, UniProt O00329); test: PI 3-Kinase HTRF inhibition assay, PI3K δ; details: in vitro; read-out: PI3K δ IC50
# T2 construct: purchased Upstate
# Procedure: as §1
# PI3K γ = biological target: T3, PI3K γ (Homo sapiens, UniProt P48736); test: PI 3-Kinase HTRF inhibition assay, PI3K γ; details: in vitro
# T3 construct: purchased Upstate
# PI3K α = biological target: T4, PI3K α (Homo sapiens, UniProt P42336); test: PI 3-Kinase HTRF inhibition assay, PI3K α; details: in vitro; read-out: PI3K α IC50
# T4 construct: purchased Upstate
# Procedure: as §1
# T3 sequence (P48736 whole entry): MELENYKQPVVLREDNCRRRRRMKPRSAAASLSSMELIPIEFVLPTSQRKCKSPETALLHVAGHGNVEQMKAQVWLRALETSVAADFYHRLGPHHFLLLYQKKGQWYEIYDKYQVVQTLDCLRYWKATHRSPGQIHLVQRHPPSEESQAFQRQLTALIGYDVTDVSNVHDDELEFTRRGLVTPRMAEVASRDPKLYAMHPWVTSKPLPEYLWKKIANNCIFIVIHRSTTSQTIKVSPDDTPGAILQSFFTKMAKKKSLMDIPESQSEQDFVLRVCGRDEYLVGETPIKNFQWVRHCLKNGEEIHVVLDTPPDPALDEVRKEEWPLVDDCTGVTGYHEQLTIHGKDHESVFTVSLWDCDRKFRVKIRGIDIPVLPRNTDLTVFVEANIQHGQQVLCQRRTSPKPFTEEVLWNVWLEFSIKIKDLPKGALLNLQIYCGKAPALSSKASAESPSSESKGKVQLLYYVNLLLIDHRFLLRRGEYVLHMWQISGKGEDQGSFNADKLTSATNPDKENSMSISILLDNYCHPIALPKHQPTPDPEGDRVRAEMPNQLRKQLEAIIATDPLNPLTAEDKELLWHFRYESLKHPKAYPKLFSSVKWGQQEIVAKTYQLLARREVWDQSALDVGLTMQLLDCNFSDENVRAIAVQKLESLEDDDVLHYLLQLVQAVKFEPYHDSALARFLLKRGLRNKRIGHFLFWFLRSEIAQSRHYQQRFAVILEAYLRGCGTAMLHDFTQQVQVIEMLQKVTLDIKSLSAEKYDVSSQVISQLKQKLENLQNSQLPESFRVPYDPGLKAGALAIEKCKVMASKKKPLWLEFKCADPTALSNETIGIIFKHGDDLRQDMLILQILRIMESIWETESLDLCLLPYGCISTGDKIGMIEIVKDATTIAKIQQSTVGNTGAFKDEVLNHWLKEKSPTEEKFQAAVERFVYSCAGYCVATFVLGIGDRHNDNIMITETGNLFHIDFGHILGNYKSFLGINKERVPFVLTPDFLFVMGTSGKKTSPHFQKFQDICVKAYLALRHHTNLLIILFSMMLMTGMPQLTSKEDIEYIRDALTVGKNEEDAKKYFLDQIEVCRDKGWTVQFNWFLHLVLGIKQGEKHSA
# T2 sequence (O00329 whole entry): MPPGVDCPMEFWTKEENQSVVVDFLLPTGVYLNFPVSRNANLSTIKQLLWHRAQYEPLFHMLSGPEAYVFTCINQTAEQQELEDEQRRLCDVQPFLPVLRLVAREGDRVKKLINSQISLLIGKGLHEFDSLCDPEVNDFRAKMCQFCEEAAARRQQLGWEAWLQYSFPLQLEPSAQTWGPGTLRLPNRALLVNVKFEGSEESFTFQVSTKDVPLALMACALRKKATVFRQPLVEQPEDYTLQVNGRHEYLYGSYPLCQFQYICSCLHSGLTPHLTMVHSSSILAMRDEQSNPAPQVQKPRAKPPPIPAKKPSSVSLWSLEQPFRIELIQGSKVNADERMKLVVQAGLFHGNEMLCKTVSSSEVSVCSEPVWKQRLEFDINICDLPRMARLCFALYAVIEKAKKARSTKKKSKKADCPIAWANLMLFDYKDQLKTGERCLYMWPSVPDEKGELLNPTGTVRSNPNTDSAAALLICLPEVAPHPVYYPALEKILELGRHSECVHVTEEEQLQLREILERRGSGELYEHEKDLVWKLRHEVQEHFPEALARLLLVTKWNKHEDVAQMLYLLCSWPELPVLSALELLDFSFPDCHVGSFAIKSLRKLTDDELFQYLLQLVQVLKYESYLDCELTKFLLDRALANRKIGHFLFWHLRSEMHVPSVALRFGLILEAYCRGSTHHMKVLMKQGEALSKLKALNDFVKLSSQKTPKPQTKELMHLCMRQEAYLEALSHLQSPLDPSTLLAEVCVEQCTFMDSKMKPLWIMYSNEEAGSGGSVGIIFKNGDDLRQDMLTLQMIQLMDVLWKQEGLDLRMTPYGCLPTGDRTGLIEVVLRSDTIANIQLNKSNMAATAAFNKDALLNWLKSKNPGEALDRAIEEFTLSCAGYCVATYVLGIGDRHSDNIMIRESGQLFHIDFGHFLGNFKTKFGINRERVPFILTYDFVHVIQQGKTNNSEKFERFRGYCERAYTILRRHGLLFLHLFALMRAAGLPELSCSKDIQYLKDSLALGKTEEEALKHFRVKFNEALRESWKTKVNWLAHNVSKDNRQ
# T2 sequence (P27986 whole entry partner): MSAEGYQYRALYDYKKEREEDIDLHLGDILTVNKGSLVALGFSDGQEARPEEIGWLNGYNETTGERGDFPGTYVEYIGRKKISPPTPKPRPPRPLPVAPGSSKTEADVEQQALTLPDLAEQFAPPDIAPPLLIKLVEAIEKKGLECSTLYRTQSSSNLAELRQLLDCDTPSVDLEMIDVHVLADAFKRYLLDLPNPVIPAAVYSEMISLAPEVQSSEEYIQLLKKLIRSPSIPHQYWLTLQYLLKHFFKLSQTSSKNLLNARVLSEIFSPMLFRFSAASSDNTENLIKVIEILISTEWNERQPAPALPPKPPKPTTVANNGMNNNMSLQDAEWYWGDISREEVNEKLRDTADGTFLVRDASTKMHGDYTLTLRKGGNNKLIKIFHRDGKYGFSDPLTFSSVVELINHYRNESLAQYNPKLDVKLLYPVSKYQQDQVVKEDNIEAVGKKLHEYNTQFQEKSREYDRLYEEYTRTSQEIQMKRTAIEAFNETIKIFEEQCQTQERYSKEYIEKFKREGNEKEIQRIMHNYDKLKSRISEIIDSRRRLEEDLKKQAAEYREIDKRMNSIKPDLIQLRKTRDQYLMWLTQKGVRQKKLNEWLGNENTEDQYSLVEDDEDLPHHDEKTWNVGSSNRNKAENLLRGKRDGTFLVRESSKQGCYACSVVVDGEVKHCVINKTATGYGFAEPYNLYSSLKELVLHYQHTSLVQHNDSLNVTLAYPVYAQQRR
# T1 sequence (P42338 whole entry): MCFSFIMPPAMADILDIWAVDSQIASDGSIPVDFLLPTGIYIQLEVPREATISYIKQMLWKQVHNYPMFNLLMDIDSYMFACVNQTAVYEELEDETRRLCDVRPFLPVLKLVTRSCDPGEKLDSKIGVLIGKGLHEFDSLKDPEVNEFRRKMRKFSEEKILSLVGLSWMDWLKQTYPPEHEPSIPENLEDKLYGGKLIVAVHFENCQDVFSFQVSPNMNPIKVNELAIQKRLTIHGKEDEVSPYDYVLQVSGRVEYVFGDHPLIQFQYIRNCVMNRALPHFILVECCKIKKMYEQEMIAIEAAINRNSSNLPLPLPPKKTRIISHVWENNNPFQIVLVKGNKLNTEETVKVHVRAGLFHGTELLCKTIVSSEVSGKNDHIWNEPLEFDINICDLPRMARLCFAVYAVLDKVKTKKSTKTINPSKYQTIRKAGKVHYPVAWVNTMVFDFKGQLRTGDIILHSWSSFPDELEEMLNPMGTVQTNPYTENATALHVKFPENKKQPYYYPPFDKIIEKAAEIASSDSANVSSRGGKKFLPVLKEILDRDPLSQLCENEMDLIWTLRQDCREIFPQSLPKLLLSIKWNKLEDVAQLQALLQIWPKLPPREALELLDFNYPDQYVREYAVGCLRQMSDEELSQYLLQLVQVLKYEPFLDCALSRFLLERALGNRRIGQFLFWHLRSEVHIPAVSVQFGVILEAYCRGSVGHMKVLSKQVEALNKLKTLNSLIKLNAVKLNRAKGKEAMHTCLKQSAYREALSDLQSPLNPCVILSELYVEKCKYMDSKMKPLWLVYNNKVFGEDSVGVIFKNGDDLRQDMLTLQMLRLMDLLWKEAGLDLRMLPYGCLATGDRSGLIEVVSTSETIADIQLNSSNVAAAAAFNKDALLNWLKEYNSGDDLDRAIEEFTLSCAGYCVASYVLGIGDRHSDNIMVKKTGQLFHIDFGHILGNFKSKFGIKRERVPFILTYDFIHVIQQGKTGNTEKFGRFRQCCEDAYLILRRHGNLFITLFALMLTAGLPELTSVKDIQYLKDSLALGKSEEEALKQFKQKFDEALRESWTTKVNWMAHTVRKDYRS
# T1 sequence (P27986 whole entry partner): as the sequence (P27986 whole entry partner) above
# T4 sequence (P42336 whole entry): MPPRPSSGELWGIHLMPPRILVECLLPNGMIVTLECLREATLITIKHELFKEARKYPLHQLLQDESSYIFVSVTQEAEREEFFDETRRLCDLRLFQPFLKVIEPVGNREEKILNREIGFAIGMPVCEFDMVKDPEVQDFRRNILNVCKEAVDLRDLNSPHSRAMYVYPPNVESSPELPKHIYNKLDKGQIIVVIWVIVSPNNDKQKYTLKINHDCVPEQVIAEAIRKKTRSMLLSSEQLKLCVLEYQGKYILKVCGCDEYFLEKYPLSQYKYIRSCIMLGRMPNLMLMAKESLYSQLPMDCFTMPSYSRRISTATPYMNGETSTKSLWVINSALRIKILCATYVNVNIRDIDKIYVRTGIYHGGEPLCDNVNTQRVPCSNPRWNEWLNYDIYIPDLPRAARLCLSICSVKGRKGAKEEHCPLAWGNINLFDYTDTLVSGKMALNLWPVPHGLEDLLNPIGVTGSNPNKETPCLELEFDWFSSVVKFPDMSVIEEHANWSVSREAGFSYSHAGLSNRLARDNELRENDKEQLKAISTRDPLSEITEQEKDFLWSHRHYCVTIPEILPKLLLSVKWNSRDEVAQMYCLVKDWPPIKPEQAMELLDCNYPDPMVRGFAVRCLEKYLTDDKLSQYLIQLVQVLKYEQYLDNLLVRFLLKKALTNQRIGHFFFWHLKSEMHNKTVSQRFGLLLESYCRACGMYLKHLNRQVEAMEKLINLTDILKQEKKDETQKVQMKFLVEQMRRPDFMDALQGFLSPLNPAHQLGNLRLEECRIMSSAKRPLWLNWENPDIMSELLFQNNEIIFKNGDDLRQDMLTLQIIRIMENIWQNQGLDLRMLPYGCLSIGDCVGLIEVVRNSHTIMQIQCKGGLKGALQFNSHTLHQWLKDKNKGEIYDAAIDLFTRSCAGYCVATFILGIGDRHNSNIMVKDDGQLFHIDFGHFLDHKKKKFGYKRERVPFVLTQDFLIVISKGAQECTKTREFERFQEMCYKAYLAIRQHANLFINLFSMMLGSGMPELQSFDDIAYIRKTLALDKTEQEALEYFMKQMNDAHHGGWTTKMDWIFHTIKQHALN
# T4 sequence (P27986 whole entry partner): as the sequence (P27986 whole entry partner) above
SMILES,IC50 (PI3K β) [nM],IC50 (PI3K δ) [nM],IC50 (PI3K γ) [nM],IC50 (PI3K α) [nM]
Nc1nc2cc(-c3ccc4ncc(-c5cccnc5)nc4n3)ccc2o1 [Compound 3],< 10000,> 10000,< 1000,< 1000
CCOC(=O)N1CCN(c2cnc3ccc(-c4ccc5oc(N)nc5c4)nc3n2)CC1 [Compound 6],< 1000,< 1000,< 1000,< 100
CS(=O)(=O)N1CCN(C2CN(c3cnc4ccc(-c5ccc6oc(N)nc6c5)nc4n3)C2)CC1 [Compound 8],> 10000,< 10000,< 1000,< 100
CCOC(=O)N1CC=C(c2cnc3ccc(-c4ccc5oc(N)nc5c4)nc3n2)CC1 [Compound 9],< 10000,< 10000,< 100,< 100
C[C@H]1CN(C2CN(c3cnc4ccc(-c5ccc6oc(N)nc6c5)nc4n3)C2)CCN1 [Compound 10],> 10000,< 10000,< 10000,< 100
C[C@@H]1CN(C2CN(c3cnc4ccc(-c5ccc6oc(N)nc6c5)nc4n3)C2)CCN1 [Compound 12],> 10000,< 10000,> 10000,< 100
CC1(C)CN(C2CN(c3cnc4ccc(-c5ccc6oc(N)nc6c5)nc4n3)C2)CCO1 [Compound 17],> 10000,> 10000,,< 1000
CC1CN(C2CN(c3cnc4ccc(-c5ccc6oc(N)nc6c5)nc4n3)C2)CCO1 (stereo not shown) [Compound 18],> 10000,> 10000,< 10000,< 1000
Nc1nc2cc(-c3ccc4ncc(N5CC(N6CC7CCC(C6)O7)C5)nc4n3)ccc2o1 [Compound 20],> 10000,> 10000,< 10000,< 1000
C[C@H]1CN(C2CN(c3cnc4ccc(-c5ccc6oc(N)nc6c5)nc4n3)C2)CCN1C [Compound 21],> 10000,< 10000,> 10000,< 100
Nc1nc2cc(-c3ccc4ncc(N5C6CCC5COC6)cc4n3)ccc2o1 [Compound 23],< 10000,> 10000,< 100,< 100
C[C@@H]1CN(C2CN(c3cnc4ccc(-c5ccc6oc(N)nc6c5)nc4n3)C2)CCN1C [Compound 25],> 10000,< 10000,< 10000,< 100
CCN(CC)c1cnc2ccc(-c3ccc4oc(N)nc4c3)nc2n1 [Compound 26],> 10000,< 10000,< 1000,< 1000
C[C@H](N)C(=O)N1CCN(c2cnc3ccc(-c4ccc5oc(N)nc5c4)nc3n2)CC1 [Compound 30],< 100,< 100,< 100,< 100
C[C@@H](N)C(=O)N1CCN(c2cnc3ccc(-c4ccc5oc(N)nc5c4)nc3n2)CC1 [Compound 31],< 10000,< 10000,< 1000,< 100
NCC(=O)N1CCN(c2cnc3ccc(-c4ccc5oc(N)nc5c4)nc3n2)CC1 [Compound 33],< 10000,< 10000,< 10000,< 100
Nc1nc2cc(-c3ccc4ncc(N5CC(N6CCNCC6)C5)nc4n3)ccc2o1 [Compound 34],> 10000,> 10000,> 10000,< 1000
Nc1nc2cc(-c3ccc4ncc(N5CCN(C(=O)C6(N)CC6)CC5)nc4n3)ccc2o1 [Compound 41],,,< 100,< 100

# Other lines, results leading:
IC50 (PI3K β) [nM],IC50 (PI3K δ) [nM],IC50 (PI3K γ) [nM],IC50 (PI3K α) [nM],SMILES
< 100,< 10000,< 10000,< 1000,C[C@H]1CN(c2cnc3ccc(-c4ccc5oc(N)nc5c4)nc3n2)CCN1 [Compound 1]
< 1000,> 10000,< 100,< 100,"Nc1nc2cc(-c3ccc4ncc(N5CCOCC5)nc4n3)ccc2o1 [Compound 2, 5-(3-morpholinopyrido[2,3-b]pyrazin-6-yl)benzo[d]oxazol-2-amine]"
< 1000,< 10000,< 10000,< 1000,CN1CCN(c2cnc3ccc(-c4ccc5oc(N)nc5c4)nc3n2)CC1 [Compound 4]
> 10000,< 10000,< 10000,< 100,Nc1nc2cc(-c3ccc4ncc(N5CC(N6CCOCC6)C5)nc4n3)ccc2o1 [Compound 5]
> 10000,> 10000,> 10000,> 10000,Nc1nc2cc(-c3ccc4nc(N5CCOCC5)cnc4n3)ccc2o1 [Compound 7]
< 10000,> 10000,< 100,< 100,Nc1nc2cc(-c3ccc4ncc(C5=CCOCC5)nc4n3)ccc2o1 [Compound 11]
> 10000,> 10000,< 100,< 100,Nc1nc2cc(-c3ccc4ncc(N5CCC(F)(F)CC5)nc4n3)ccc2o1 [Compound 13]
< 10000,< 10000,< 100,< 100,C[C@@H]1COCCN1c1cnc2ccc(-c3ccc4oc(N)nc4c3)nc2n1 [Compound 14]
< 10000,> 10000,< 100,< 100,C[C@H]1COCCN1c1cnc2ccc(-c3ccc4oc(N)nc4c3)nc2n1 [Compound 15]
< 10000,< 10000,< 100,< 100,Nc1nc2cc(-c3ccc4ncc(-c5cccnc5)cc4n3)ccc2o1 [Compound 16]
< 1000,> 10000,< 100,< 100,Nc1nc2cc(-c3ccc4ncc(N5CCOCC5)cc4n3)ccc2o1 [Compound 22]
< 100,< 10000,< 1000,< 100,CN1CCN(c2cnc3ccc(-c4ccc5oc(N)nc5c4)nc3c2)CC1 [Compound 24]
< 100,< 10000,< 1000,< 100,C[C@@H]1CN(c2cnc3ccc(-c4ccc5oc(N)nc5c4)nc3n2)CCN1 [Compound 27]
> 10000,> 10000,< 1000,< 100,Nc1nc2cc(-c3ccc4ncc(N5CC6CCC(C5)O6)nc4n3)ccc2o1 [Compound 28]
< 1000,< 10000,< 100,< 100,Nc1nc2cc(-c3ccc4ncc(N5CCNC(=O)C5)nc4n3)ccc2o1 [Compound 29]
< 1000,< 10000,< 1000,< 100,CC(C)N1CCN(c2cnc3ccc(-c4ccc5oc(N)nc5c4)nc3n2)CC1 [Compound 32]
,< 1000,< 1000,< 100,"CC(C)(N)C(=O)N1CCN(c2cnc3ccc(-c4ccc5oc(N)nc5c4)nc3c2)CC1 [Compound 43, 2-amino-1-(4-(6-(2-aminobenzo[d]oxazol-5-yl)-1,5-naphthyridin-3-yl)piperazin-1-yl)-2-methylpropan-1-one]"
< 1000,< 1000,,< 100,"CC(C)N1CCN(C2CN(c3cnc4ccc(-c5ccc6oc(N)nc6c5)nc4c3)C2)CC1 [Compound 72, 5-(7-(3-(4-isopropylpiperazin-1-yl)azetidin-1-yl)-1,5-naphthyridin-2-yl)benzo[d]oxazol-2-amine]"
